Test results as given in PubChem BioAssay AID504874 (NMMLSC, 2011).
Activity calls are given as the source filed them.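 Rule for the calls: active = normalized viability below 40% relative to DMSO and staurosporine controls, called cytotoxic; inactive = the rest.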

Test system: L1210 murine leukemia viability, fluorescein diacetate flow cytometry, 48 h
Test: viability of murine L1210 leukemia line – cell-based, cytotoxicity control for T cell immune modulator project (AID 504874)
Details: at 20 µM; active compounds read low

Row | SMILES | viability
1 | O=C(NCCN1CCN(c2ccccc2)CC1)c1cccc(Br)c1 | 96.4% (inactive)
2 | O=C(NCC1CCCCC1)c1ccc(Cl)c(S(=O)(=O)N2CCOCC2)c1 | 114% (inactive)
3 | Cc1ncc([N+](=O)[O-])n1Cc1cccc(F)c1 | 104% (inactive)
4 | CCOC(=O)N1CCN(C(=O)c2ccc(CS(=O)Cc3ccc(C)cc3)o2)CC1 (stereo not drawn) | 107% (inactive)
5 | Cc1ccc(O)c(CCc2ccccc2)n1 | 116% (inactive)
6 | Cc1ccc(C(=O)NCCCN2CCOCC2)c(C)c1 | 108% (inactive)
7 | NC(=O)C1CCN(c2nc(-c3cc4ccccc4o3)cs2)CC1 | 109% (inactive)
8 | O=C(NCCC1=CCCCC1)C(=O)NCC(c1ccco1)N1CCN(c2ccccc2F)CC1 (stereo not drawn) | 109% (inactive)
9 | COc1ccc(NC(=O)CC2C(=O)N(Cc3ccccc3)C(=S)N2CCN2CCOCC2)cc1 (stereo not drawn) | 98.8% (inactive)
10 | COCCCN1CCc2[nH]c(=S)[nH]c(=O)c2C1 | 102% (inactive)
11 | Cc1cc(Cl)c(OCCCSc2nc(C)cc(=O)[nH]2)c(Br)c1 | 107% (inactive)
12 | Cc1ccc(Cn2c([N+](=O)[O-])cnc2C)cc1 | 104% (inactive)
13 | O=C(c1ccc(N2C(=O)C3CC=C(Cl)CC3C2=O)cc1)N1CCCCC1 (stereo not drawn) | 107% (inactive)
14 | CCCc1nnc(NC(=O)c2ccc(S(=O)(=O)N(C)c3ccccc3OC)cc2)s1 | 59.6% (inactive)
15 | CCC(C(=O)Nc1ccccc1)c1ccccc1 (stereo not drawn) | 98.3% (inactive)
16 | COCc1c(C(=O)Nc2cccc(S(=O)(=O)N3CCCCC3)c2)oc2ccccc12 | 78.5% (inactive)
17 | CN1CCN(S(=O)(=O)c2cccc(C(=O)Nc3cc(C(F)(F)F)ccc3N3CCCCC3)c2)CC1 | 102% (inactive)
18 | CCN(CC)S(=O)(=O)c1ccc(Cl)c(NC(=O)COC(=O)C2CCCCC2)c1 | 102% (inactive)
19 | COc1ccc(/C=C2\SC(=S)N(CCC(=O)N3CCOCC3)C2=O)cc1 | 90.8% (inactive)
20 | CCCCOc1ccc(C(=O)NCC(=O)N2CCN(C(=O)c3ccco3)CC2)cc1 | 107% (inactive)
21 | COc1ccc(Nc2ccccc2N)cc1 | 90.2% (inactive)
22 | Cc1cc(C)n(C(=O)c2sc3cc(F)ccc3c2Cl)n1 | 107% (inactive)
23 | O=C1CC(c2nc3ccccc3[nH]2)CN1Cc1ccccc1 (stereo not drawn) | 103% (inactive)
24 | Cc1ccccc1C(=O)NCC(=O)N1CCN(C/C=C/c2ccccc2)CC1 | 83.1% (inactive)
25 | CC1CCCCC1NC(=O)COC(=O)c1ccc2ncsc2c1 (stereo not drawn) | 92.6% (inactive)
26 | Cc1ccccc1C(=O)N1CCC(C(=O)Nc2ccc(C)c(S(=O)(=O)N3CCCCC3)c2)CC1 | 15.6%

Row | SMILES | viability
27 | O=C(OCCOc1cccc(Cl)c1)c1ccc(F)c(S(=O)(=O)N2CCOCC2)c1 | 109% (inactive)
28 | COc1ccc(S(=O)(=O)N2CCCC2C(=O)Nc2ccc(C(C)=O)cc2)cc1 (stereo not drawn) | 112% (inactive)
29 | O=C(CC1=NCCNC(c2ccccc2)C1)c1ccccc1O (stereo not drawn) | 115% (inactive)
30 | CC(Sc1nc2ccccc2[nH]1)C(=O)NC1CCCCC1C (stereo not drawn) | 98.6% (inactive)
31 | COc1ccc([N+](=O)[O-])cc1NC(=O)c1ccc(N(Cc2ccccc2C)S(C)(=O)=O)cc1 | 111% (inactive)
32 | CC(C)(C)NC(=O)COc1ccc(CNCc2cccnc2)cc1 | 108% (inactive)
33 | CN(C)S(=O)(=O)c1cccc(-n2sc3ccccc3c2=O)c1 | 35.5%
34 | O=C(NCc1cccnc1)C(=O)NCC(c1ccco1)N1CCN(c2ccccc2)CC1 (stereo not drawn) | 106% (inactive)
35 | CCOCC(=O)Nc1ccc(S(=O)(=O)N2CCC(c3nc4ccccc4[nH]3)CC2)cc1 | 106% (inactive)
36 | Cc1ccc(S(=O)(=O)N2CCN(S(=O)(=O)N(C)C)CC2)c(C)c1 | 105% (inactive)
37 | Cc1ccc(N2CC(C(=O)NC3=NCCS3)CC2=O)cc1 (stereo not drawn) | 102% (inactive)
38 | CCN(CC)CCNC(=O)CCCNC(=O)Cn1cnc2sc(C)c(C)c2c1=O | 104% (inactive)
39 | O=C(NNS(=O)(=O)c1ccc2ccccc2c1)c1cccs1 | 110% (inactive)
40 | COc1ccc(N2CC(C(=O)NC(C)C(=O)NCc3ccccc3OC)CC2=O)cc1 (stereo not drawn) | 104% (inactive)
41 | Cc1ccc(NC(=O)COC(=O)CCc2c[nH]c3ccccc23)c(C)c1 | 122% (inactive)
42 | CCOc1ccc(CCNC(=O)CCS(=O)(=O)c2ccc(C)cc2)cc1OCC | 90.1% (inactive)
43 | O=C(COC(=O)C12CC3CC(CC(Br)(C3)C1)C2)Nc1cccc(S(=O)(=O)N2CCOCC2)c1 | 99.3% (inactive)
44 | CC(=O)Nc1ccc(S(=O)(=O)NC2CCSc3ccccc32)cc1 (stereo not drawn) | 110% (inactive)
45 | c1ccc(COc2ccc(OCCN3CCCCC3)cc2)cc1 | 57.1% (inactive)
46 | CCOC(=O)c1ccc(S(=O)(=O)N2CCN(C3CCCC3)CC2)cc1 | 102% (inactive)
47 | CCCCn1nc(C(=O)N2CCN(S(=O)(=O)c3ccccc3)CC2)c2ccccc2c1=O | 100% (inactive)
48 | O=C(CS(=O)(=O)Cc1ccccc1)N1CCc2ccccc21 | 102% (inactive)
49 | COc1ccc(NC(=O)CSCC(=O)Nc2cccc(S(=O)(=O)N3CCCCCC3)c2)cc1 | 68.7% (inactive)
50 | CCCNC(=O)c1nc2ncc(Br)cn2n1 | 103% (inactive)
51 | CCN(CC)C(=O)N1CCN(S(=O)(=O)c2ccc(C)cc2)CC1 | 96.8% (inactive)
52 | Cc1ccc(OCCOC(=O)c2cc(S(=O)(=O)N3CCCCC3)ccc2N2CCOCC2)cc1 | 92.3% (inactive)

Row | SMILES | viability
53 | CN1CCN(S(=O)(=O)c2ccc(C(=O)Nc3ccccc3)cc2)CC1 | 108% (inactive)
54 | O=C(CCC(=O)N1CCOCC1)NCc1cccc(C(F)(F)F)c1 | 110% (inactive)
55 | CN(CC(=O)Nc1cc(S(=O)(=O)N2CCCC2)ccc1Cl)Cc1ccc2c(c1)OCO2 | 92.1% (inactive)
56 | CCC1(C)NC(=O)N(CC(=O)N2N=C(c3ccccc3)CC2c2ccc(OC)cc2)C1=O (stereo not drawn) | 103% (inactive)
57 | COc1ccccc1CNC(=O)COc1ccc(C)cc1 | 99.1% (inactive)
58 | COC(=O)c1ccccc1NC(=O)C1CCN(C(=O)c2cc(OC)cc(OC)c2)CC1 | 108% (inactive)
59 | CN(C)S(=O)(=O)c1ccc(C(=O)NCCc2ccco2)cc1 | 108% (inactive)
60 | CCOC(=O)c1c(N2C(=O)CC(Sc3ccccc3C(=O)O)C2=O)sc2c1CCCC2 (stereo not drawn) | 98% (inactive)
61 | Cc1sc2ncnc(NCC(C)(C)N3CCOCC3)c2c1C | -4.46%
62 | COc1ccc(S(=O)(=O)N2CCCCC2)cc1NC(=O)c1cnc(C)cn1 | 105% (inactive)
63 | Cc1cccc(NC(=O)C2CCN(S(=O)(=O)c3c(C)[nH]c(=O)[nH]c3=O)CC2)c1 | 110% (inactive)
64 | COc1ccc(C2=Nc3cc(C)ccc3OC2)cc1 | 108% (inactive)
65 | Cc1cc(=O)oc2c3c(cc(OCC(=O)NCc4ccncc4)c12)OC(C)(C)CC3 | 110% (inactive)
66 | O=C(O)C1CCC(Cn2c(SCc3cc(=O)n4cc(Cl)ccc4n3)nc3ccsc3c2=O)CC1 (stereo not drawn) | 111% (inactive)
67 | Cc1ccc(S(=O)(=O)N2CCN(C(=O)CNC(=O)c3ccc(Cl)cc3)CC2)cc1 | 96.1% (inactive)
68 | CCOc1ccc(-c2nc(N)ncc2-c2ccccc2)c(O)c1 | 105% (inactive)
69 | Cn1c(CNC(=O)CNC(=O)c2ccc(F)cc2)cc(=O)n(C)c1=O | 100% (inactive)
70 | COc1ccc(CNC(=O)c2cccnc2SC)cc1OC | 101% (inactive)
71 | CC(=O)c1ccc(-c2csc(N3CCC(C(N)=O)CC3)n2)cc1 | 70.7% (inactive)
72 | COc1ccccc1NS(=O)(=O)c1cc(NC(=O)CNC(=O)c2cc(C)cc(C)c2)ccc1C | 61.6% (inactive)
73 | COc1ccc(C(O)c2coc3ccc(O)c(CN(C)C)c23)cc1 (stereo not drawn) | 87.4% (inactive)
74 | CCOC(=O)c1c(C=O)c2ccccc2n1CC | 104% (inactive)
75 | CCOC(=O)C1CCCN(S(=O)(=O)c2ccc(F)c(C(=O)Nc3ccc(F)c(F)c3)c2)C1 (stereo not drawn) | 91.6% (inactive)
76 | O=C(Cn1cc(C(F)(F)F)cc(Cl)c1=O)NCCc1ccc(Cl)cc1Cl | 103% (inactive)
77 | COc1cccc(NC(=O)Nc2ccc3nc(C)c(C)nc3c2)c1 | 82.2% (inactive)
78 | CCOC(=O)c1ccc(NC(=O)CN2C(=O)NC3(CCCCCCC3)C2=O)cc1 | 98.6% (inactive)
